According to US10633350B2, “Diphenyl derivatives and uses thereof” (NOVARTIS AG, priority 2017, dated 2020):

Assays:
[1] = test system: Akt; assay: Akt activation assay (Phospho-AKT (Ser473) antibody staining) in U2OS GFP-FoxO3a H212R reporter cells; format: cell-based; conditions: Homo sapiens, 0.5 h, serum starved overnight, 30 minutes compound treatment, total cellular intensity of Phospho-Akt (Ser473) antibody staining, AC50 = concentration that results in 50% activation or inhibition
In short: (§1)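 Serum-starved (overnight) cells treated with compounds at various doses for 30 min, then fixed in 4% paraformaldehyde and stained overnight at 4 °C for pAkt S473 with Hoechst nuclear counterstain; high-content imaging. FoxO3a readout: nuclear/cytosolic GFP ratio (%); Akt readout: total cellular pAkt intensity (%); DMSO = 0% activity.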

[2] = test system: FoxO3a; assay: FoxO3a inhibition assay (GFP-FoxO3a nuclear to cytoplasmic translocation) in U2OS GFP-FoxO3a H212R reporter cells; format: cell-based; conditions: Homo sapiens, 0.5 h, serum starved overnight, 30 minutes compound treatment, ratio of nuclear to cytosolic GFP intensity, AC50 = concentration that results in 50% activation or inhibition, read-out: FoxO AC50
In short: as §1

Cc1nc(C(N)=O)nn1-c1ccc(C(C)(C)c2ccc(-c3ccc(N4CCCC4)nc3)cc2)cc1 [Example 13-14]
AC50 [1]: 1170 nM | AC50 [2]: 386 nM

Cc1nc(C(N)=O)nn1-c1ccc(Cc2ccc(-c3ccc(CN4CCC5(CC4)COC5)cc3)cc2)cc1 [Example 38-8]
AC50 [1]: 211 nM | AC50 [2]: 51 nM

Cc1nc(C(N)=O)nn1-c1ccc(Cc2ccc(-c3ccc(CN4CC[C@H](O)C4)cc3)cc2)cc1 [Example 39-5]
AC50 [1]: 22 nM | AC50 [2]: 8 nM

Cc1cc(C(N)=O)nn1-c1ccc(Cc2ccc(-c3ccc(CN4CCN(C)CC4)cc3)cc2)cc1 [Example 3-12, 5-methyl-1-(4-((4′-((4-methylpiperazin-1-yl)methyl)-[1,1′-biphenyl]-4-yl)methyl)phenyl)-1H-pyrazole-3-carboxamide]
AC50 [1]: 122 nM | AC50 [2]: 36 nM

Cc1nc(C(N)=O)nn1-c1ccc(C(C)(C)c2ccc(-c3ccc(C#N)nc3)cc2)cc1 [Example 13-10]
AC50 [1]: 1180 nM | AC50 [2]: 489 nM

Cc1nc(C(N)=O)nn1-c1ccc(Cc2ccc(-c3ccc(S(=O)(=O)NCC(C)(C)O)cc3)cc2)cc1 [Example 50, 1-(4-((4′-(N-(2-hydroxy-2-methylpropyl)sulfamoyl)-[1,1′-biphenyl]-4-yl)methyl)phenyl)-5-methyl-1H-1,2,4-triazole-3-carboxamide]
AC50 [1]: 117 nM | AC50 [2]: 36 nM
